# Results: the supplement of paper PMC10307832
# Compound: COc1cccc2cc(-c3nc([C@H]4CC[C@H](C(=O)O)CC4)n4ncnc(N)c34)[nH]c12 [OSI-027] + Cc1nc(NC(=O)N2CCC[C@H]2C(N)=O)sc1-c1ccnc(C(C)(C)C(F)(F)F)c1 [Alpelisib] (partner 2 µM)
# Test: relative viability (nuclei count vs DMSO), 5 days (fraction); higher = more cells survive
# Conditions: first compound 0.01 µM
# Summary of the method: (§1)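 Five library-drug doses in √10 steps were combined with a fixed anchor-drug dose, or a single drug was given alone, by pin tool to lung cancer cell lines in 1536-well plates the day after seeding. Nuclei were stained and counted after 5 days. Relative viability is the nuclei count in treated wells over that in vehicle wells, taken as the median of duplicate plates.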
row,Cell Line,relative viability
1,NCI-H838,0.996
2,ABC-1,0.98
3,Calu-6,0.917
4,NCI-H2170,0.856
5,NCI-H1563,0.983
6,NCI-H1792,1.07
7,NCI-H727,0.567
8,EBC-1,0.79
9,A549,0.718
10,IA-LM,0.791

# Same assay, conditions: first compound 0.03162 µM
row,Cell Line,relative viability
1,NCI-H2126,0.69
2,EPLC-272H,0.866
3,NCI-H1755,0.849
4,NCI-H2023,0.499
5,NCI-H1793,0.589
6,H3255,0.731
7,NCI-H1975,0.667
8,PC-14,0.641
9,NCI-H1299,1.05
10,NCI-H1437,0.676
11,HOP-62,0.881
12,HCC-44,0.775
13,BEN,0.695
14,LOU-NH91,0.689
15,NCI-H661,0.671
16,PC-3 [JPC-3],1.03
17,SW 1573,0.76

row,Cell Line,relative viability
1,LK-2,0.835
2,NCI-H2405,0.664
3,NCI-H1703,0.285
4,NCI-H1993,0.646
5,NCI-H1355,0.723
6,HCC-366,0.423
7,NCI-H1915,1.12
8,NCI-H838,0.847
9,ABC-1,0.921
10,Calu-6,0.974
11,NCI-H2170,0.888
12,NCI-H1563,0.888
13,NCI-H1792,0.517
14,NCI-H727,0.63
15,EBC-1,0.909
16,A549,0.612
17,IA-LM,0.686

# Same assay, conditions: first compound 0.1 µM
row,Cell Line,relative viability
1,NCI-H2126,0.694
2,EPLC-272H,0.828
3,NCI-H1755,0.917
4,NCI-H2023,0.505
5,NCI-H1793,0.466
6,H3255,0.537
7,NCI-H1975,0.455
8,PC-14,1.01
9,NCI-H1299,1.12
10,NCI-H1437,0.895
11,HOP-62,0.934
12,HCC-44,0.738
13,BEN,0.67
14,LOU-NH91,0.616
15,NCI-H661,0.41
16,NCI-H1651,0.882
17,PC-3 [JPC-3],0.986
18,SW 1573,0.661

row,Cell Line,relative viability
1,LK-2,0.84
2,NCI-H2405,0.577
3,NCI-H1703,0.284
4,NCI-H1993,0.562
5,NCI-H1355,0.677
6,HCC-366,0.256
7,NCI-H1915,1.13
8,NCI-H838,0.632
9,ABC-1,0.903
10,Calu-6,0.75
11,NCI-H2170,0.593
12,NCI-H1563,0.82
13,NCI-H1792,0.623
14,NCI-H727,0.491
15,EBC-1,0.823
16,A549,0.727
17,IA-LM,0.455

# Same assay, conditions: first compound 0.3162 µM
row,Cell Line,relative viability
1,NCI-H2126,0.603
2,EPLC-272H,0.619
3,NCI-H1755,0.8
4,NCI-H2023,0.34
5,NCI-H1793,0.307
6,H3255,0.503
7,NCI-H1975,0.38
8,PC-14,1.03
9,NCI-H1299,1.08
10,NCI-H1437,0.521
11,HOP-62,0.81
12,HCC-44,0.574
13,BEN,0.447
14,LOU-NH91,0.558
15,NCI-H661,0.5
16,NCI-H1651,0.713
17,PC-3 [JPC-3],0.802
18,SW 1573,0.669

row,Cell Line,relative viability
1,LK-2,0.321
2,NCI-H2405,0.475
3,NCI-H1703,0.279
4,NCI-H1993,0.533
5,NCI-H1355,0.345
6,HCC-366,0.243
7,NCI-H1915,0.956
8,NCI-H838,0.498
9,ABC-1,0.628
10,Calu-6,0.697
11,NCI-H2170,0.688
12,NCI-H1563,0.673
13,NCI-H1792,0.495
14,NCI-H727,0.419
15,EBC-1,0.478
16,A549,0.361
17,IA-LM,0.322

# Same assay, conditions: first compound 1 µM
row,Cell Line,relative viability
1,NCI-H2126,0.399
2,EPLC-272H,0.599
3,NCI-H1755,0.353
4,NCI-H2023,0.19
5,NCI-H1793,0.189
6,H3255,0.376
7,NCI-H1975,0.355
8,PC-14,0.65
9,NCI-H1299,0.786
10,NCI-H1437,0.272
11,HOP-62,0.333
12,HCC-44,0.215
13,BEN,0.319
14,LOU-NH91,0.47
15,NCI-H661,0.33
16,NCI-H1651,0.559
17,PC-3 [JPC-3],0.43
18,SW 1573,0.39

row,Cell Line,relative viability
1,LK-2,0.165
2,NCI-H2405,0.33
3,NCI-H1703,0.238
4,NCI-H1993,0.655
5,NCI-H1355,0.24
6,HCC-366,0.1
7,NCI-H1915,0.605
8,NCI-H838,0.275
9,ABC-1,0.537
10,Calu-6,0.42
11,NCI-H2170,0.355
12,NCI-H1563,0.759
13,NCI-H1792,0.188
14,NCI-H727,0.378
15,EBC-1,0.343
16,A549,0.131
17,IA-LM,0.113

# Compound: Cc1nc(NC(=O)N2CCC[C@H]2C(N)=O)sc1-c1ccnc(C(C)(C)C(F)(F)F)c1 [Alpelisib] + O=C(CCCCCCC(=O)Nc1ccccc1)NO [Vorinostat] (partner 1 µM)
# Test: as above
# Conditions: first compound 0.04 µM
# Summary of the method: as §1
row,Cell Line,relative viability
1,NCI-H2126,0.717
2,EPLC-272H,0.474
3,NCI-H1755,0.774
4,NCI-H2023,0.595
5,NCI-H1650,0.585
6,NCI-H1793,0.62
7,NCI-H2342,0.795
8,H3255,0.778
9,NCI-H1975,0.696
10,PC-14,0.771
11,NCI-H1437,0.886
12,HOP-62,0.665
13,HCC-44,1.1
14,BEN,0.588
15,LOU-NH91,0.936
16,NCI-H661,0.765
17,NCI-H1651,0.534

row,Cell Line,relative viability
1,PC-3 [JPC-3],0.877
2,SW 1573,0.833
3,LK-2,0.261
4,NCI-H2405,1.13
5,NCI-H1648,0.418
6,NCI-H1993,0.751
7,ChaGo-K-1,0.698
8,NCI-H1355,0.626
9,HCC-366,0.429
10,NCI-H1915,0.543
11,NCI-H838,0.675
12,ABC-1,1.15
13,NCI-H2170,0.731
14,NCI-H522,0.79
15,NCI-H727,1.1
16,IA-LM,0.882
17,SW 900,0.497

# Same assay, conditions: first compound 0.1265 µM
row,Cell Line,relative viability
1,NCI-H2126,0.565
2,EPLC-272H,0.455
3,NCI-H1755,0.71
4,NCI-H2023,0.634
5,NCI-H1650,0.599
6,NCI-H1793,0.977
7,NCI-H2342,0.622
8,H3255,0.733
9,NCI-H1975,0.674
10,PC-14,0.681
11,NCI-H1437,0.886
12,HOP-62,0.558
13,HCC-44,1.05
14,BEN,0.544
15,LOU-NH91,0.785
16,NCI-H661,0.795

row,Cell Line,relative viability
1,NCI-H1651,0.619
2,PC-3 [JPC-3],0.699
3,SW 1573,0.684
4,LK-2,0.264
5,NCI-H2405,1.06
6,NCI-H1648,0.457
7,NCI-H1993,0.815
8,ChaGo-K-1,0.759
9,NCI-H1355,0.609
10,HCC-366,0.356
11,NCI-H1915,0.543
12,NCI-H838,0.697
13,ABC-1,0.602
14,NCI-H2170,0.663
15,NCI-H522,0.977
16,NCI-H727,1.2

# Same assay, conditions: first compound 0.4 µM
row,Cell Line,relative viability
1,NCI-H2126,0.67
2,EPLC-272H,0.465
3,NCI-H1755,0.873
4,NCI-H2023,0.61
5,NCI-H1650,0.756
6,NCI-H1793,0.839
7,NCI-H2342,0.712
8,H3255,0.826
9,NCI-H1975,0.61
10,PC-14,0.717
11,NCI-H1437,0.963
12,HOP-62,0.683
13,HCC-44,1.11
14,BEN,0.715
15,LOU-NH91,0.823
16,NCI-H661,0.819
17,NCI-H1651,0.552

row,Cell Line,relative viability
1,PC-3 [JPC-3],1.12
2,SW 1573,0.678
3,LK-2,0.261
4,NCI-H2405,1.06
5,NCI-H1648,0.714
6,NCI-H1993,0.909
7,ChaGo-K-1,0.825
8,NCI-H1355,0.677
9,HCC-366,0.353
10,NCI-H1915,0.577
11,NCI-H838,0.72
12,ABC-1,0.905
13,NCI-H2170,0.914
14,NCI-H522,1.04
15,NCI-H727,1.07
16,IA-LM,1.32
17,SW 900,0.587

# Same assay, conditions: first compound 1.265 µM
row,Cell Line,relative viability
1,NCI-H2126,0.5
2,EPLC-272H,0.209
3,NCI-H1755,0.605
4,NCI-H2023,0.394
5,NCI-H1650,0.491
6,NCI-H1793,0.598
7,NCI-H2342,0.662
8,H3255,0.613
9,NCI-H1975,0.426
10,PC-14,0.432
11,NCI-H1437,0.734
12,HOP-62,0.456
13,HCC-44,1.04
14,BEN,0.578
15,LOU-NH91,0.715
16,NCI-H661,0.755
17,NCI-H1651,0.517

row,Cell Line,relative viability
1,PC-3 [JPC-3],0.638
2,SW 1573,0.388
3,LK-2,0.234
4,NCI-H2405,0.682
5,NCI-H1648,0.317
6,NCI-H1993,0.596
7,ChaGo-K-1,0.573
8,NCI-H1355,0.529
9,HCC-366,0.208
10,NCI-H1915,0.448
11,NCI-H838,0.642
12,ABC-1,0.869
13,NCI-H2170,0.551
14,NCI-H522,0.867
15,NCI-H727,1.06
16,IA-LM,0.92
17,SW 900,0.368

# Same assay, conditions: first compound 4 µM
row,Cell Line,relative viability
1,NCI-H2126,0.457
2,EPLC-272H,0.222
3,NCI-H1755,0.632
4,NCI-H2023,0.348
5,NCI-H1650,0.368
6,NCI-H1793,0.325
7,NCI-H2342,0.714
8,H3255,0.496
9,NCI-H1975,0.402
10,PC-14,0.624
11,NCI-H1437,0.692
12,HOP-62,0.491
13,HCC-44,1.18
14,BEN,0.584
15,LOU-NH91,0.556
16,NCI-H661,0.728
17,NCI-H1651,0.504

row,Cell Line,relative viability
1,PC-3 [JPC-3],0.514
2,SW 1573,0.584
3,LK-2,0.306
4,NCI-H2405,0.59
5,NCI-H1648,0.324
6,NCI-H1993,0.64
7,ChaGo-K-1,0.564
8,NCI-H1355,0.398
9,HCC-366,0.156
10,NCI-H1915,0.509
11,NCI-H838,0.606
12,ABC-1,0.692
13,NCI-H2170,0.484
14,NCI-H522,0.742
15,NCI-H727,0.848
16,IA-LM,0.867
17,SW 900,0.461
